Results on 16 molecules are retold here after patent US11390613B2, “Azole analogues and methods of use thereof” (UNIVERSITY OF CONNECTICUT, priority 2017, dated 2022).

Series [1] concerns primary murine Hh-dependent MB cell line (MERP). In words: Antiproliferation in primary Hh-dependent MB cells (MERP). It counts as cell-based. The settings on record: Mus musculus. As for the experimental part: Secondary In Vitro Evaluation. Based on their activity in ASZ cells, several compounds were evaluated further in a primary murine Hh-dependent MB cell line (MERP).
(§1) General Information for Cell Culture Studies Protocols for general cell culture, qPCR, and Hh inhibition ASZ cells are as previously described.
(§2) General Information for Cell Culture Studies. Protocols for general cell culture, qPCR, and Hh inhibition ASZ cells are as previously described.

Series [2] in a line: Parallel artificial membrane permeability assay (PAMPA). It counts as in vitro ADME. As to conditions: passive permeability. The source says:
(§3) Preliminary In Vitro Pharmacokinetic Assays.
For orientation: The PAMPA barrier holds no transporters, so it reflects passive diffusion.

Series [3] can be described thus: Metabolic half-life and clearance (HLM). It counts as in vitro ADME.
Another series concerns the target CYP3A4 (Homo sapiens, UniProt P08684). In words: CYP3A4 inhibition.
Another series addresses P-glycoprotein (P-gp) (Homo sapiens, UniProt P08183). In words: P-glycoprotein (P-gp) efflux. It counts as in vitro ADME. The settings on record: Table P1.
Source text: as §3

Series [4] concerns Gli1 mRNA levels in the murine BCC cell line ASZ-001 (Hh pathway). In words: Hh pathway inhibition: endogenous Gli1 mRNA (qRT-PCR) in ASZ-001 cells. It counts as cell-based. How it is done:
Initial Hh inhibition studies.
as §1, §2
Gene Expression Assay Protocol (ASZ-001): Cells are seeded (10,000 cells per well; 100 μL total volume per well) in a 96-well tissue culture plate. After 24 h of incubation (37° C., 5% CO2), growth media was removed and replaced with low FBS media. Cells were incubated for an additional 24 h. After this time, DMSO (vehicle control) and liposomes (Aqueous Solution) were added to the wells. […]
Rt-PCR Protocol: Following treatment and incubation periods, both RNA extraction and cDNA synthesis were performed using a TaqMan Cells-to-CT (fast) kit. cDNA synthesis utilized a BioRad MyCycler and was programmed according to the manufacturer's instructions. Quantitative RT-PCR was performed on an ABI 7500 system and made use of the following TaqMan Gene Expression Probes: mouse ActB (Mm00607939_s1) and mouse Gli1 (Mm00494654_m1). Relative gene expression levels were computed via ΔΔCT method using GraphPad Prism. Corresponding IC50 values were calculated as mean±SEM for at least three separate experiments performed in triplicate.
Background: In qPCR the cycle at which signal appears reflects the starting amount.

The mark [5] stands for this setting: Mus musculus, ASZ001, Table P2, ASZ cells, Gli1 mRNA, 48 h incubation, read-out: IC50.

In general, Solubility refers to the concentration that dissolves in the medium under given conditions. A higher Solubility goes with a readily soluble substance. As a reminder, the GI50 is the concentration giving 50% growth inhibition. Higher therefore signals lower sensitivity of the cells.

Converted amounts (≈) assume the structure as drawn. Like-named read-outs stand apart in the source and are kept apart here.

CYP3A4, sequence (P08684 whole entry): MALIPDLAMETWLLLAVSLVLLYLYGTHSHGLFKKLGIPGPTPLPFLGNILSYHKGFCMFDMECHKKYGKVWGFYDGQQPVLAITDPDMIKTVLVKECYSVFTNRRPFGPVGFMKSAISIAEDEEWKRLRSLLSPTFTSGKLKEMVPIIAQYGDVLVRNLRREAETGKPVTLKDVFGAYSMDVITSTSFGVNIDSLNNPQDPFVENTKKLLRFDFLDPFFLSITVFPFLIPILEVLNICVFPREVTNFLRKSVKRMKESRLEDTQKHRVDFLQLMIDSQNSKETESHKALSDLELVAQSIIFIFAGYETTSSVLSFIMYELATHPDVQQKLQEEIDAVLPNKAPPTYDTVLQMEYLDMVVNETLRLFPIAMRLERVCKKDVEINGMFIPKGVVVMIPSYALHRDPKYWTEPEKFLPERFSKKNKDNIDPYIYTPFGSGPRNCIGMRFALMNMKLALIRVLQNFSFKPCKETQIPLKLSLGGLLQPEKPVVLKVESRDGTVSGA
P-glycoprotein (P-gp), sequence (P08183 whole entry): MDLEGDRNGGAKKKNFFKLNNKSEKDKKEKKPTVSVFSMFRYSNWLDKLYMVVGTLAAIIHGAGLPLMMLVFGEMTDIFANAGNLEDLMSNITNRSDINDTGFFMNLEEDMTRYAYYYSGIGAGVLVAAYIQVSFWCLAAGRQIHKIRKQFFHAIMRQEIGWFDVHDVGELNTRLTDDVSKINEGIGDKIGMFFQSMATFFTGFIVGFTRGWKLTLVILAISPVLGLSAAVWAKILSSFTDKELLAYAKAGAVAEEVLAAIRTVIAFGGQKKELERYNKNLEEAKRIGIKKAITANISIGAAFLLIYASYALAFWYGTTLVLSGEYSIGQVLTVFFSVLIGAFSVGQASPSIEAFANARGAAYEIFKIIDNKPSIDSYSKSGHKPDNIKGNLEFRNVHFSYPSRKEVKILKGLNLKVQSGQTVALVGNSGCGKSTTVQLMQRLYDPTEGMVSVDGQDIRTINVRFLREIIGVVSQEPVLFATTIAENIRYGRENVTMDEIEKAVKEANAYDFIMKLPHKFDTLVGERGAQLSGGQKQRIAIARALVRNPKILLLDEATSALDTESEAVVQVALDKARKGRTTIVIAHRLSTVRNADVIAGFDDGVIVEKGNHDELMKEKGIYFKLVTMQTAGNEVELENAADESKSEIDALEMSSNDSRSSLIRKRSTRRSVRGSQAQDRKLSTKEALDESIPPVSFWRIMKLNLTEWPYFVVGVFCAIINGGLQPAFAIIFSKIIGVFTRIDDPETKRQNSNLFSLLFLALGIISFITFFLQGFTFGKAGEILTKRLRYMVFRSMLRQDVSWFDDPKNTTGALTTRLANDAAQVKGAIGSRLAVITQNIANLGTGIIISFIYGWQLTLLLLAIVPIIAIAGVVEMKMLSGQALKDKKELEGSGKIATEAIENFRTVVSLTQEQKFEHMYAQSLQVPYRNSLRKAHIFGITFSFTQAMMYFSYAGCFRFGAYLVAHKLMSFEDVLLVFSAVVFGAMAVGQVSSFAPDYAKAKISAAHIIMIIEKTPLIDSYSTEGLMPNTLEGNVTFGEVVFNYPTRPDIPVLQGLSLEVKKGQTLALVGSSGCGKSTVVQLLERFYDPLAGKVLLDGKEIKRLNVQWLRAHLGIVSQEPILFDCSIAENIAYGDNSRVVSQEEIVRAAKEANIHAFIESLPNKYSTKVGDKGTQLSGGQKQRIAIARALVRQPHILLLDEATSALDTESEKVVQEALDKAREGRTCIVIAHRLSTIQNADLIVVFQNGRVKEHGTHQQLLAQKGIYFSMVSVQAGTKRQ
Protocol for CYP3A4: Additionally, CYP3A4 inhibition and P-glycoprotein (P-gp) efflux of each compound were evaluated.

In series [1] (Table 6), `C[C@@]1(c2ccc(Cl)cc2Cl)OC[C@@H](COc2ccc(N3CCN(c4ccc(NC(=O)c5cccnc5)cc4)CC3)cc2)O1` [Compound 13, N-(4-(4-(4-(((2R,4R)-2-(2,4-dichlorophenyl)-2-methyl-1,3-dioxolan-4-yl)methoxy)phenyl)piperazin-1-yl)phenyl)nicotinamide] gave an IC50 of more than 10000 nM. In addition, in series [2], the PAMPA entry was “Poor”. The “Solubility” value in the series “Solubility” is 4.2 nM (≈ 2.6 ng/mL). In addition, the “T1/2 (HLM, min)” value in series [3] is on record as “significantly different half-lives”.
`C[C@@]1(c2ccc(Cl)cc2Cl)OC[C@@H](COc2ccc(N3CCN(c4ccc(NC(=O)c5cccc(O)c5)cc4)CC3)cc2)O1` [Compound 27, N-(4-(4-(4-(((2R,4R)-2-(2,4-dichlorophenyl)-2-methyl-1,3-dioxolan-4-yl)methoxy)phenyl)piperazin-1-yl)phenyl)-3-hydroxybenzamide] gave an IC50 in series [1] (Table 6) of 2800 ± 1500 nM. Moreover, the “Solubility” value in the series “Solubility” turned out to be 1.4 nM (≈ 0.888 ng/mL). Also, the “T1/2 (HLM, min)” value in series [3] is more than 231 min.
Take `C[C@]1(c2ccc(Cl)cc2Cl)OC[C@@H](COc2ccc(N3CCN(c4ccc(NC(=O)c5cccc(O)c5)cc4)CC3)cc2)O1` [Compound 30, N-(4-(4-(4-(((2S,4R)-2-(2,4-dichlorophenyl)-2-methyl-1,3-dioxolan-4-yl)methoxy)phenyl)piperazin-1-yl)phenyl)-3-hydroxybenzamide]: the IC50 was found to be 350 ± 60 nM in series [1] (Table 6) and 11400 nM at CYP3A4 (read-out: CYP3A4, Table 9). In addition, in series [2], the PAMPA result was “Poor”. The “Solubility” value in “Solubility” is 1.6 nM (≈ 1.02 ng/mL). The “T1/2 (HLM, min)” value in series [3] is “did not significantly change”.
In turn, `CC(=O)c1cccc(C(=O)Nc2ccc(N3CCN(c4ccc(OC[C@@H]5CO[C@](C)(c6ccc(Cl)cc6Cl)O5)cc4)CC3)cc2)c1` [Compound 34, 3-acetyl-N-(4-(4-(4-(((2S,4R)-2-(2,4-dichlorophenyl)-2-methyl-1,3-dioxolan-4-yl)methoxy)phenyl)piperazin-1-yl)phenyl)benzamide] returned a GI50 in series [1] (Table 7) of 1000 ± 300 nM. This molecule had an IC50 at CYP3A4 of more than 30000 nM. Also, in “Solubility”, the “Solubility” value was found to be 1.4 nM (≈ 0.925 ng/mL). In series [3], the “T1/2 (HLM, min)” value came out at 11.4 ± 0.06 min.
For the molecule `C[C@@]1(c2ccc(Cl)cc2Cl)OC[C@@H](COc2ccc(N3CCN(c4ccc(NC(=O)NN)cc4)CC3)cc2)O1` [Compound 39, N-(4-(4-(4-(((2R,4R)-2-(2,4-dichlorophenyl)-2-methyl-1,3-dioxolan-4-yl)methoxy)phenyl)piperazin-1-yl)phenyl)hydrazinecarboxamide], the IC50 in series [1] (Table 8) is 500 ± 400 nM; at CYP3A4, more than 30000 nM. In addition, the “Solubility” value in the series “Solubility” is 9.3 nM (≈ 5.32 ng/mL). For the same molecule, in series [3], the “T1/2 (HLM, min)” value stood at 20.1 ± 0.6 min.
Consider `C[C@]1(c2ccc(Cl)cc2Cl)OC[C@@H](COc2ccc(N3CCN(c4ccc(NC(=O)NN)cc4)CC3)cc2)O1` [Compound 40, N-(4-(4-(4-(((2S,4R)-2-(2,4-dichlorophenyl)-2-methyl-1,3-dioxolan-4-yl)methoxy)phenyl)piperazin-1-yl)phenyl)hydrazinecarboxamide], for which the IC50 in series [1] (Table 8) was 2800 ± 900 nM; at CYP3A4 it was more than 30000 nM. The “Solubility” value in the series “Solubility” was 1.4 nM (≈ 0.801 ng/mL). The “T1/2 (HLM, min)” value in series [3] was determined as 11.5 ± 0.1 min.
For `CC[C@@H](C)n1ncn(-c2ccc(N3CCN(c4ccc(OC[C@@H]5CO[C@@](C)(c6ccc(F)cc6F)C5)cc4)CC3)cc2)c1=O` [Compound P1, 2-((R)-sec-butyl)-4-(4-(4-(4-(((3R,5R)-5-(2,4-difluorophenyl)-5-methyltetrahydrofuran-3-yl)methoxy)phenyl)-piperazin-1-yl)phenyl)-2,4-dihydro-3H-1,2,4-triazol-3-one], the IC50 in series [1] (Table P1) was 610 ± 120 nM; in series [4] (Mus musculus, ASZ001, Table P1, ASZ cells, Gli1 mRNA, 48 h incubation, read-out: IC50), 190 nM; against CYP3A4 (human), more than 20000 nM. Also, the “P-gp (Efflux)” value at P-glycoprotein (P-gp) is listed as “No Efflux”. The “times more potent than PSZ” value in series [4] (ASZ cells, IC50 ratio vs PSZ) is listed as 2.5 times. Also, the “CYP3A4 IC50 (μM)” value on CYP3A4 (Table P1) is recorded as “decreased CYP3A4 inhibition”.
With `C[C@]1(c2ccc(F)cc2F)C[C@H](COc2ccc(N3CCN(c4ccc(-n5cnn(CCCO)c5=O)cc4)CC3)cc2)CO1` [Compound P15, 4-(4-(4-(4-(((3R,5R)-5-(2,4-difluorophenyl)-5-methyltetrahydrofuran-3-yl)methoxy)phenyl)piperazin-1-yl)phenyl)-2-(3-hydroxypropyl)-2,4-dihydro-3H-1,2,4-triazol-3-one], the IC50 in series [4] (setting [5]) is 20 ± 10 nM.
The same measure, in the same setting: under `C[C@]1(c2ccc(F)cc2F)C[C@H](COc2ccc(N3CCN(c4ccc([N+](=O)[O-])cc4)CC3)cc2)CO1` [Compound P19, 1-(4-(((3R,5R)-5-(2,4-difluorophenyl)-5-methyltetrahydrofuran-3-yl)methoxy)phenyl)-4-(4-nitrophenyl)piperazine] stands 740 ± 150 nM; under `C[C@]1(c2ccc(F)cc2F)C[C@H](COc2ccc(N3CCN(c4ccc(N)cc4)CC3)cc2)CO1` [Compound P20, 4-(4-(4-(((3R,5R)-5-(2,4-difluorophenyl)-5-methyltetrahydrofuran-3-yl)methoxy)phenyl)piperazin-1-yl)aniline], 330 ± 120 nM.
For the molecule `C[C@]1(c2ccc(F)cc2F)C[C@H](COc2ccc(N3CCN(c4ccc(NC(=O)Oc5ccccc5)cc4)CC3)cc2)CO1` [Compound P21, phenyl (4-(4-(4-(((3R,5R)-5-(2,4-difluorophenyl)-5-methyltetrahydrofuran-3-yl)methoxy)phenyl)piperazin-1-yl)phenyl)carbamate], the IC50 in series [4] (Mus musculus, ASZ001, 48 h) was more than 10000 nM.
With `C[C@]1(c2ccc(F)cc2F)C[C@H](COc2ccc(N3CCN(c4ccc(NC(=O)NN)cc4)CC3)cc2)CO1` [Compound P22, N-(4-(4-(4-(((3R,5R)-5-(2,4-difluorophenyl)-5-methyltetrahydrofuran-3-yl)methoxy)phenyl)piperazin-1-yl)phenyl)hydrazinecarboxamide], in series [4] (setting [5]), the IC50 turned out to be 220 ± 80 nM.
In the case of `C[C@]1(c2ccc(F)cc2F)C[C@H](COc2ccc(N3CCN(c4ccc(-n5cn[nH]c5=O)cc4)CC3)cc2)CO1` [Compound P23, 4-(4-(4-(4-(((3R,5R)-5-(2,4-difluorophenyl)-5-methyltetrahydrofuran-3-yl)methoxy)phenyl)piperazin-1-yl)phenyl)-2,4-dihydro-3H-1,2,4-triazol-3-one], the IC50 in series [4] (setting [5]) is 190 ± 100 nM.
Still for that read-out and setting: the same measure for `CC(=O)c1cccc(C(=O)Nc2ccc(N3CCN(c4ccc(OC[C@@H]5CO[C@@](C)(c6ccc(F)cc6F)C5)cc4)CC3)cc2)c1` [Compound P24, 3-acetyl-N-(4-(4-(4-(((3R,5R)-5-(2,4-difluorophenyl)-5-methyltetrahydrofuran-3-yl)methoxy)phenyl)piperazin-1-yl)phenyl)benzamide]: 24 ± 9 nM; for `C[C@]1(c2ccc(F)cc2F)C[C@H](COc2ccc(N3CCN(c4ccc(NC(=O)c5cccc(O)c5)cc4)CC3)cc2)CO1` [Compound P25, N-(4-(4-(4-(((3R,5R)-5-(2,4-difluorophenyl)-5-methyltetrahydrofuran-3-yl)methoxy)phenyl)piperazin-1-yl)phenyl)-3-hydroxybenzamide]: 190 ± 30 nM.
As to `C[C@]1(c2ccc(F)cc2F)C[C@H](COc2ccc(N3CCN(c4ccc(NC(=O)c5cccnc5)cc4)CC3)cc2)CO1` [Compound P26, N-(4-(4-(4-(((3R,5R)-5-(2,4-difluorophenyl)-5-methyltetrahydrofuran-3-yl)methoxy)phenyl)piperazin-1-yl)phenyl)nicotinamide], the IC50 in series [4] (Table P2, ASZ cells, Gli1 mRNA, 48 h incubation, read-out: IC50) amounted to 38 nM.
